Where two headings read alike, the source gives them in different places.
Columns and labels:
NMDA receptor = test: Whole-cell voltage-clamp recordings of NMDA evoked currents in hypocretin neurons (hypothalamic slices); assay type: cell-based, mouse; conditions: for inhibition of the peak amplitude of NMDA evoked currents: bath application, -60 mV, mean±SEM
C57/BL6 male mice [1] = conditions: for MES-induced death: mice; for # of deaths / # of extensions: 6 mice
C57/BL6 male mice [2] = test: Rotarod test (balance and coordination, side effects)
Procedure: The side effects of the compounds was primarily evaluated using the rotarod test, which mainly assesses the balancing and coordination of mice. The comparisons were made on fall time of the mice between the first measure (pre-treatment) and second measure taken 20 min after the drug/vehicle injection in the same group (paired t-test). […] Comparisons of the rotatod fall times after drug/vehicle dosing were made between drug treatment and control groups (unpaired t-test).

[3] = system: primary neurons from rat cerebral cortex; test: NMDA-induced LDH release assay in primary cortical neurons (neuroprotection); assay type: cell-based
Procedure: The neuroprotective properties of drugs have been studied in vitro, using neurons cultured from cortex, cerebellum or retina. […] Neurotoxicity is determined in this assay by measuring lactate dehydrogenase (LDH), a method which is simple, accurate and reproducible. We conducted pilot studies to test if poly-lysine-coated plates would be suitable as a matrix upon which to plate fetal neurons, compared to astrocyte-coated plates. We also compared the use of growth medium to neurobasal medium supplemented with B27 in the pilot experiments. The concentrations of NMDA (300-500 μM), glycine (10-50 μM), and memantine (10-100 μM) were varied, and optimum concentrations and times determined from these pilot studies were then chosen for the main study. The assay is described below.
Fetal rat neocortical cells were cultured on a mouse astroglial feeder layer. To obtain mouse astroglial cells for the feeder layer, cortices were harvested from 1-day old Swiss Webster mice (Charles River, Hollister, Calif.) according to the procedure described by Rose et al (1993). After dissecting cortices in ice-cold dissecting medium, they were minced and incubated in 0.09% trypsin in media stock for 1 hr, followed by resuspension in growth medium containing 10% equine serum and 10% fetal bovine serum. A single-cell suspension was obtained by triturating through fire-bored glass pipettes, and the resulting cell suspension was plated at a density of 0.5-0.75 hemispheres/24-well plate/9.6 ml, with 0.4 ml/well. Plates were incubated in a humidified incubator at 37° C., 5% CO2. Astroglial cells become confluent in about 2-3 weeks, at which time these cultures are ready to be used as feeder layers upon which neuronal cultures can be plated. Neuronal cells were obtained from gestational Sprague-Dawley rats E16-E18, using a similar dissection procedure. Rat embryos were dissected to obtain cortical tissue, which was plated as a single-cell suspension at a density of 1.4 hemispheres/24-well plate/9.6 ml, with 0.4 ml/well. These cells were plated on the existing astroglial feeder layer, and were incubated at 37° C., 5% CO2. After 5 days in culture, cytosine arabinoside (10 μM) was added to the wells to inhibit glial cell proliferation, and after 24 hours, the medium was replaced with fresh growth medium. Cells were fed with fresh growth medium every 2 days, until the experiments were performed. For coating plates with poly-lysine, we used poly-d-lysine hydrobromide (Sigma Cat # P7280) at a concentration of 0.1 mg/ml to coat each well using a minimum volume of 0.2 ml/well. After coating for 5 minutes, the solution was aspirated and wells were rinsed thoroughly with sterile tissue culture grade water. After drying for 2 hours, plates were ready for use. Neuronal cultures were plated onto poly-lysine-coated plates at the same density as above. For the pilot study, some of the cultures were fed with 1:1 ratio of growth medium: neurobasal medium (GIBCO)+B-27 supplement (2%), while the rest of the cultures were fed with growth medium alone (Losi et al., 2006). For the main study, we used astroglial feeder layers to plate the neuronal cultures, and used a mix (1:1) of growth medium with neurobasal medium+B-27 supplement for feeding the cultures.
After 11-14 days in culture, neuronal cells were confluent and experiments were performed. Cells were washed twice using sterile Locke's buffer (154 mM NaCl, 5.6 mM KCl, 2.3 mM CaCl2, 3.6 mM NaHCO3, 5.5 mM D-glucose, 5 mM HEPES, pH 7.4), and then exposed to the various treatment compounds. […] After 15 minutes, cultures were washed twice and incubated overnight in media stock. After 24 hours, supernatants and lysates were collected to measure LDH activity. LDH activity was measured by the reduction of NAD, which was utilized in the stoichiometric conversion of a tetrazolium dye using a kit (Sigma TOX-7). Supernatants were removed from the wells and centrifuged before LDH measurements. The adherent cells were lysed to obtain total LDH. […]

C57/BL6 male mice [4] = test: Pentylenetetrazol (PTZ)-induced seizure/death model; assay type: in vivo, mouse; conditions: for PTZ-induced death / # of deaths within 30 min: PTZ 100 mg/kg; for # of deaths within 30 min / # mice with L3 seizure / # mice with L4 seizure: 6 mice; for Time to death: mice that died within 30 min
Procedure: Although the protection against death is the key endpoint, other effects of the compounds on PTZ-induced seizures were also assessed using multiple parameters. For the mice that did die within the 30 minute observation window, the time of death was also compared. […] The seizure occurrence rate, onset time and number of level 3 (L3) seizure (repetitive seizures but the animal can still stand) and level 4 (L4) seizure (repetitive seizures and the animal loses righting) are also analyzed. The MDT compound (30 mg/kg) treated groups show a certain degree of improvement compared to control. No data from MK801 or memantine were included because the seizures occurring under these treatments are totally different from the control or MDT injected groups due to side effects (“high jumping”).

[5] = NMDA 300 uM + MK801 1 uM, Plate #4, poly-lysine-coated rat neurons, GM/NB + B-27 fed, 24 hour incubation
[6] = NMDA 300 uM + MK801 1 uM, Plate #5, astrocyte-coated rat neurons, GM fed, 24 hour incubation
[7] = NMDA 300 uM + MK801 1 uM, astrocyte-coated rat neurons, GM/NB + B-27 fed, 24 hour incubation
[8] = NMDA 500 μM + MK801 1 μM, astrocyte-coated rat neurons, GM/NB + B-27 fed, 21 hour incubation
[9] = NMDA 500 uM + MK801 1 uM, poly-lysine-coated rat neurons, GM/NB + B-27 fed, 40 hour incubation

C[C@]12N[C@H](Cc3ccccc31)c1ccccc12 [MK-801, reference compound]
inhibition of the peak amplitude of NMDA evoked currents (NMDA receptor; 100 nM): 58±9.4% | Extension rate (C57/BL6 male mice [1]; 0.5 mg/kg i.p.): 0.50 | Mortality rate (C57/BL6 male mice [1]; 0.5 mg/kg i.p.): 0.50 | MES-induced death (C57/BL6 male mice [1]; 0.5 mg/kg i.p.): little effect compared to control | # of deaths (C57/BL6 male mice [1]; 0.5 mg/kg i.p.): 3 | # of extensions (C57/BL6 male mice [1]; 0.5 mg/kg i.p.): 3 | hyperactivity (side effect) (C57/BL6 male mice [2]; 1 mg/kg i.p.): observed | % (Control Wash = 100) [3, 5]: 143% | Secreted LDH (Avg) [3, 5]: 0.62 | Secreted/(total + secreted) (Avg) [3, 5]: 15.63 | Total LDH (Avg) [3, 5]: 3.34 | % (Control Wash = 100) [3, 6]: 92% | Secreted LDH (Avg) [3, 6]: 0.18 | Secreted/(total + secreted) (Avg) [3, 6]: 5.43 | Total LDH (Avg) [3, 6]: 3.18 | % (Control Wash = 100) [3, 7]: 241% | Secreted LDH (Avg) [3, 7]: 0.74 | Secreted/(total + secreted) (Avg) [3, 7]: 17.39 | Total LDH (Avg) [3, 7]: 3.51 | % (Control Wash = 100) [3, 8]: 125% | Secreted LDH (Avg) [3, 8]: 0.43 | Secreted/(total + secreted) (Avg) [3, 8]: 10.39 | Total LDH (Avg) [3, 8]: 3.71 | % (Control Wash = 100) [3, 9]: 96% | Secreted LDH (Avg) [3, 9]: 0.36 | Secreted/(total + secreted) (Avg) [3, 9]: 11.04 | Total LDH (Avg) [3, 9]: 2.90 | Mortality rate (C57/BL6 male mice [4]; 1.0 mg/kg i.p.): 0 | PTZ-induced death (C57/BL6 male mice [4]; 1 mg/kg i.p.): full protection | # of deaths within 30 min (C57/BL6 male mice [4]; 1.0 mg/kg i.p.): 0

CC12CC3(N)CC4C5CC(CC41)CC2C5C3 [MDT-22, 1-methyl-9-aminodiamantane]
inhibition of the peak amplitude of NMDA evoked currents (NMDA receptor; 10 μM): 19±3.1% | inhibition of the peak amplitude of NMDA evoked currents (NMDA receptor; 100 μM): 45±12.1% | reversibility of inhibition of NMDA evoked currents upon washout (NMDA receptor; washout of the compound): reversible | Extension rate (C57/BL6 male mice [1]; 10 mg/kg i.p.): 1.00 | Mortality rate (C57/BL6 male mice [1]; 10 mg/kg i.p.): 0.50 | # of deaths (C57/BL6 male mice [1]; 10 mg/kg i.p.): 3 | # of extensions (C57/BL6 male mice [1]; 10 mg/kg i.p.): 6 | Extension rate (C57/BL6 male mice [1]; 30 mg/kg i.p.): 0.83 | Mortality rate (C57/BL6 male mice [1]; 30 mg/kg i.p.): 0.33 | # of deaths (C57/BL6 male mice [1]; 30 mg/kg i.p.): 2 | # of extensions (C57/BL6 male mice [1]; 30 mg/kg i.p.): 5 | MES-induced death (C57/BL6 male mice [1]; 10 and 30 mg/kg i.p.): dose dependent reduction in MES-induced death | Fall Time (C57/BL6 male mice [2]; after, 20 min after 10 mg/kg i.p.): 44.58 ± 4.58 min | Fall Time (C57/BL6 male mice [2]; after, 20 min after 30 mg/kg i.p.): 44.93 ± 5.45 min | Fall Time (C57/BL6 male mice [2]; before (pre-treatment), 10 mg/kg group): 33.56 ± 3.91 min | Fall Time (C57/BL6 male mice [2]; before (pre-treatment), 30 mg/kg group): 45.03 ± 6.02 min | EC50 ([3]; Rattus norvegicus, Primary neuron, two experiments, 300 uM NMDA + 50 μM glycine 15 minutes, LDH after 24 hours, read-out: average EC50 (±SD), NMDA-induced LDH release): 56.5 ± 14.6 µM | # L3 per mouse (C57/BL6 male mice [4]; 10 mg/kg i.p.): 2.00 ± 0.58 | # L4 per mouse (C57/BL6 male mice [4]; 10 mg/kg i.p.): 3.85 ± 2.28 | L3 onset time (C57/BL6 male mice [4]; 10 mg/kg i.p.): 2.80 ± 1.00 min | L3 seizure rate (C57/BL6 male mice [4]; 10 mg/kg i.p.): 0.50 | L4 onset time (C57/BL6 male mice [4]; 10 mg/kg i.p.): 7.90 ± 1.70 min | L4 seizure rate (C57/BL6 male mice [4]; 10 mg/kg i.p.): 1.00 | Mortality rate (C57/BL6 male mice [4]; 10 mg/kg i.p.): 1.00 | # mice with L3 seizure (C57/BL6 male mice [4]; 10 mg/kg i.p.): 3 | # mice with L4 seizure (C57/BL6 male mice [4]; 10 mg/kg i.p.): 6 | # of deaths within 30 min (C57/BL6 male mice [4]; 10 mg/kg i.p.): 6 | Time to death (C57/BL6 male mice [4]; 10 mg/kg i.p.): 9.60 ± 1.80 min | # L3 per mouse (C57/BL6 male mice [4]; 30 mg/kg i.p.): 1.67 ± 0.50 | # L4 per mouse (C57/BL6 male mice [4]; 30 mg/kg i.p.): 1.17 ± 0.19 | L3 onset time (C57/BL6 male mice [4]; 30 mg/kg i.p.): 5.10 ± 2.30 min | L3 seizure rate (C57/BL6 male mice [4]; 30 mg/kg i.p.): 1.00 | L4 onset time (C57/BL6 male mice [4]; 30 mg/kg i.p.): 10.20 ± 3.00 min | L4 seizure rate (C57/BL6 male mice [4]; 30 mg/kg i.p.): 1.00 | Mortality rate (C57/BL6 male mice [4]; 30 mg/kg i.p.): 0.67 | # mice with L3 seizure (C57/BL6 male mice [4]; 30 mg/kg i.p.): 6 | # mice with L4 seizure (C57/BL6 male mice [4]; 30 mg/kg i.p.): 6 | # of deaths within 30 min (C57/BL6 male mice [4]; 30 mg/kg i.p.): 4 | Time to death (C57/BL6 male mice [4]; 30 mg/kg i.p.): 7.70 ± 2.10 min | PTZ-induced death (C57/BL6 male mice [4]; 10 and 30 mg/kg i.p., 30 min observation): a certain reduction in PTZ-induced death
